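A five-concentration, 48-hour dose response in 96-well plates underlies each endpoint, interpolated linearly between surrounding concentrations. At the GI50, growth is halved.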 Activity calls are given as the source filed them. No stated cut-off is given here; in the data, active = GI50 up to about 1.1 µM and inactive = higher.
Assays:
Assay in all cases: DTP human tumour cell line panel, 48 h
[1] = test system: 786-0
[2] = test system: CCRF-CEM
[3] = test system: EKVX
[4] = test system: HL-60
[5] = test system: IGROV-1
[6] = test system: K562
[7] = test system: KM12
[8] = test system: M14
[9] = test system: Malme-3M
[10] = test system: NCI-H522
[11] = test system: NCI/ADR-RES
[12] = test system: OVCAR-8
[13] = test system: PC-3
[14] = test system: RXF 393
[15] = test system: SK-MEL-5
[16] = test system: SK-OV-3
[17] = test system: SR
[18] = test system: T47D
[19] = test system: TK-10
[20] = test system: UO-31

Compound | GI50 [1] | GI50 [2] | GI50 [3] | GI50 [4] | GI50 [5] | GI50 [6] | GI50 [7] | GI50 [8] | GI50 [9] | GI50 [10] | GI50 [11] | GI50 [12] | GI50 [13] | GI50 [14] | GI50 [15] | GI50 [16] | GI50 [17] | GI50 [18] | GI50 [19] | GI50 [20]
CCCCCCCCCCC/C=C(/C(=O)CCCO[Si](C)(C)C(C)(C)C)C(=O)OC | > 100 µM (inactive) | > 100 µM (inactive) | > 100 µM (inactive) | > 100 µM (inactive) | > 100 µM (inactive) | > 100 µM (inactive) | > 100 µM (inactive) | > 100 µM (inactive) | > 100 µM (inactive) | > 100 µM (inactive) | > 100 µM (inactive) | > 100 µM (inactive) | > 100 µM (inactive) | > 100 µM (inactive) | > 100 µM (inactive) | > 100 µM (inactive) | > 100 µM (inactive) | > 100 µM (inactive) | > 100 µM (inactive) | > 100 µM (inactive)
O=C(OCc1ccccc1)C1(N2CN(C3(C(=O)OCc4ccccc4)CCCC3)CN(C3(C(=O)OCc4ccccc4)CCCC3)C2)CCCC1 | > 10 µM (inactive) | > 10 µM (inactive) | > 10 µM (inactive) | > 10 µM (inactive) | > 10 µM (inactive) | > 10 µM (inactive) | > 10 µM (inactive) | > 10 µM (inactive) | > 10 µM (inactive) | > 10 µM (inactive) | > 10 µM (inactive) | > 10 µM (inactive) | > 10 µM (inactive) | > 10 µM (inactive) | > 10 µM (inactive) | > 10 µM (inactive) | > 10 µM (inactive) | > 10 µM (inactive) | > 10 µM (inactive) | > 10 µM (inactive)
O=C1NC(Nc2ccccc2Cl)=N/C1=C\c1c(Cl)cccc1Cl | 33.4 µM (inactive) | 34.4 µM (inactive) | 31 µM (inactive) | 18.6 µM (inactive) | 25.8 µM (inactive) | 17.1 µM (inactive) | 23.7 µM (inactive) | 40.9 µM (inactive) | 31.1 µM (inactive) | 18.7 µM (inactive) | 23.2 µM (inactive) | 31.6 µM (inactive) | 25.1 µM (inactive) | 23.4 µM (inactive) | 20.3 µM (inactive) | 59.8 µM (inactive) | 5.52 µM (inactive) | 28.6 µM (inactive) | 30.9 µM (inactive) | 20.7 µM (inactive)
COC(=O)c1ccccc1CC1Cc2cc3c(cc2C1)CCC3 | 36.5 µM (inactive) | 20.4 µM (inactive) | 45.5 µM (inactive) | 9.75 µM (inactive) | 37.3 µM (inactive) | 23 µM (inactive) | 26.5 µM (inactive) | 38.8 µM (inactive) | 21.3 µM (inactive) | 28.6 µM (inactive) | > 100 µM (inactive) | 56.8 µM (inactive) | 39.3 µM (inactive) | 20.9 µM (inactive) | 25.8 µM (inactive) | 49.4 µM (inactive) | 5.58 µM (inactive) | 50.9 µM (inactive) | > 100 µM (inactive) | 39.4 µM (inactive)
CN(C)Cc1cc(C(C)(C)C)cc(C2CCCCC2)c1O | 20.7 µM (inactive) | 13.5 µM (inactive) | 11.9 µM (inactive) | 18.2 µM (inactive) | 18.8 µM (inactive) | 12.2 µM (inactive) | 13.6 µM (inactive) | 24.6 µM (inactive) | 2.15 µM (inactive) | 20.2 µM (inactive) | 19.6 µM (inactive) | 13 µM (inactive) | 13.6 µM (inactive) | 12.6 µM (inactive) | 14.4 µM (inactive) | 15 µM (inactive) | 12.3 µM (inactive) | 3.58 µM (inactive) | 15.5 µM (inactive) | 17.7 µM (inactive)
COC1=C(OC)C(=O)C(Cc2c(Cl)nc3sccn23)=C(C)C1=O | 16.7 µM (inactive) | 2.02 µM (inactive) | 7.11 µM (inactive) | 2.42 µM (inactive) | 15.7 µM (inactive) | 11 µM (inactive) | 10.4 µM (inactive) | 11.7 µM (inactive) | 1.85 µM (inactive) | 6.15 µM (inactive) | 5.89 µM (inactive) | 13.5 µM (inactive) | 14.2 µM (inactive) | 16.1 µM (inactive) | 4.14 µM (inactive) | 10.1 µM (inactive) | 5.04 µM (inactive) | 2.76 µM (inactive) | 12.9 µM (inactive) | 10.6 µM (inactive)
COc1cc(S(=O)(=O)Nc2ccc(-c3csc(/N=C\C=C\c4ccccc4)n3)cc2)ccc1Cl | > 100 µM (inactive) | 17.5 µM (inactive) | 36.9 µM (inactive) | 43.3 µM (inactive) | 39.4 µM (inactive) | 31.2 µM (inactive) | 84.5 µM (inactive) | 29.9 µM (inactive) | 37.4 µM (inactive) | 24.5 µM (inactive) | 59 µM (inactive) | 34.8 µM (inactive) | 19.9 µM (inactive) | 16.1 µM (inactive) | 38.3 µM (inactive) | > 100 µM (inactive) | 32.5 µM (inactive) | 26.6 µM (inactive) | 42.2 µM (inactive) | 44.5 µM (inactive)
NC1=Nc2ccccc2Sc2nncn21 | > 100 µM (inactive) | > 100 µM (inactive) | > 100 µM (inactive) | > 100 µM (inactive) | > 100 µM (inactive) | > 100 µM (inactive) | > 100 µM (inactive) | > 100 µM (inactive) | > 100 µM (inactive) | 77.6 µM (inactive) | > 100 µM (inactive) | > 100 µM (inactive) | > 100 µM (inactive) | > 100 µM (inactive) | > 100 µM (inactive) | > 100 µM (inactive) | > 100 µM (inactive) | > 100 µM (inactive) | > 100 µM (inactive) | > 100 µM (inactive)
CCOC(=O)NC(NC1=NCCS1)(C(=O)OCC)C(F)(F)F (stereo not given) | > 100 µM (inactive) | > 100 µM (inactive) | > 100 µM (inactive) | > 100 µM (inactive) | > 100 µM (inactive) | > 100 µM (inactive) | > 100 µM (inactive) | > 100 µM (inactive) | > 100 µM (inactive) | > 100 µM (inactive) | > 100 µM (inactive) | > 100 µM (inactive) | > 100 µM (inactive) | > 100 µM (inactive) | > 100 µM (inactive) | > 100 µM (inactive) | > 100 µM (inactive) | > 100 µM (inactive) | > 100 µM (inactive) | > 100 µM (inactive)
CC(CC(=O)CO[C@H]1[C@H](O)[C@@H](O)[C@@H](O)[C@@H]2NC(=O)c3c(cc4c(c3O)OCO4)[C@H]21)OC1OC(CO)C(O)C(O)C1O (stereo not given in full) | 0.451 µM (active) | 0.182 µM (active) | 0.553 µM (active) | 0.372 µM (active) | 0.547 µM (active) | 0.309 µM (active) | 0.3 µM (active) | 0.425 µM (active) | 0.488 µM (active) | 0.311 µM (active) | 0.543 µM (active) | 0.313 µM (active) | 0.338 µM (active) | 0.269 µM (active) | 0.322 µM (active) | 0.469 µM (active) | 0.325 µM (active) | 0.203 µM (active) | 0.408 µM (active) | 1.38 µM (inactive)
O=C1C=C(C2=C(C3=CC(=O)c4ccccc4C3=O)C(=O)c3ccccc3C2=O)C(=O)c2ccccc21 | 2.9 µM (inactive) | 0.286 µM (active) | 11.1 µM (inactive) | 1.21 µM (inactive) | 2.15 µM (inactive) | 2.67 µM (inactive) | 7 µM (inactive) | 8.87 µM (inactive) | 2.11 µM (inactive) | 2.17 µM (inactive) | 11.1 µM (inactive) | 5.62 µM (inactive) | 10.4 µM (inactive) | 1.69 µM (inactive) | 9.4 µM (inactive) | 20.9 µM (inactive) | 31.1 µM (inactive) | 6.19 µM (inactive) | 6.21 µM (inactive) | 2.85 µM (inactive)
N#CCC12CC=CCC1=C(O)C(=O)c1ccc(O)cc12 (stereo not given) | > 100 µM (inactive) | > 100 µM (inactive) | > 100 µM (inactive) | > 100 µM (inactive) | > 100 µM (inactive) | > 100 µM (inactive) | > 100 µM (inactive) | 55.7 µM (inactive) | > 100 µM (inactive) | > 100 µM (inactive) | > 100 µM (inactive) | > 100 µM (inactive) | > 100 µM (inactive) | > 100 µM (inactive) | > 100 µM (inactive) | > 100 µM (inactive) | 90.8 µM (inactive) | > 100 µM (inactive) | > 100 µM (inactive) | 48.6 µM (inactive)
CCOC(=O)N(C)C1(c2ccccc2)CCN(CCCC(=O)c2ccc(F)cc2)CC1 | 33 µM (inactive) | 31.7 µM (inactive) | > 100 µM (inactive) | 26.5 µM (inactive) | > 100 µM (inactive) | 23.7 µM (inactive) | 30.5 µM (inactive) | 17.2 µM (inactive) | 15.3 µM (inactive) | 87.9 µM (inactive) | 47.8 µM (inactive) | > 100 µM (inactive) | 36.8 µM (inactive) | 57.8 µM (inactive) | 17.3 µM (inactive) | > 100 µM (inactive) | 19.8 µM (inactive) | 61.1 µM (inactive) | 45.3 µM (inactive) | 0.0148 µM (active)
C[C@]12CC[C@H](O)CC1=CC[C@@H]1[C@@H]2CC[C@]2(C)C(=O)[C@@H](N3CCOCC3)C[C@@H]12 | > 100 µM (inactive) | 99.8 µM (inactive) | 40.6 µM (inactive) | 47.1 µM (inactive) | > 100 µM (inactive) | 89.3 µM (inactive) | > 100 µM (inactive) | 78.5 µM (inactive) | > 100 µM (inactive) | 23.6 µM (inactive) | 61.2 µM (inactive) | 47.1 µM (inactive) | > 100 µM (inactive) | 36.9 µM (inactive) | 33.1 µM (inactive) | > 100 µM (inactive) | 44.2 µM (inactive) | 31 µM (inactive) | > 100 µM (inactive) | > 100 µM (inactive)

From ChEMBL document CHEMBL1201862, “PubChem BioAssay data set” (2004)
